Here are results for two compounds from US20100324303A1, “Use of Tetramic Acid Derivatives for Controlling Animal Pests After Treatment of the Trunk, the Branches, the Influorescences or the Buds” (Bayer CropScience AG, priority 2008, published 2010).

What all share (assay type): in vivo
The test system of test [1] is banana flower thrips (Thrips hawaiiensis). Put plainly: Flower bud injection on banana trees against banana flower thrips. The note with it: banana cv. Cavendish, 80 ml injected into flower buds, destruction of population on influorescences and bunches, imidacloprid (100 SL) 0.1 g a.i./l, Example (II) (100 OD) 0.3 g a.i./l; for Activity in % Abbott 3 d: 3 days after treatment; for Activity in % Abbott 91 d: 91 days after treatment. As for the experimental part: Banana trees cv. “Cavendish” are treated in three replications against banana flower thrips (Thrips hawaiiensis). Here, the active substances Example (II) (100 OD) are tested versus the commercial standard imidacloprid (100 SL) at the application rates specified. The application is carried out by injecting in each case 80 ml of injection solution into the flower buds. In each case three flower buds are treated. The evaluation is effected 3 and 91 days after the treatment by scoring the destruction of the population on the influorescences and bunches.

For test [2], the system named is California red scale Aonidiella aurantii. Put plainly: Stem application by painting on to orange trees against California red scale. The settings on record: 205 days after treatment, orange trees cv. Valencia, infestation on the fruits, imidacloprid 2 g a.i./tree, Example (II) (SC 240) 4 g a.i./tree. As for the experimental part: Young orange trees cv. “Valencia” which are approximately 5 years old are treated in three applications against the California red scale Aonidiella aurantii after stem application by painting on the active substances. Here, the active substance (II) (SC 240) is tested versus the commercial standard imidacloprid at the application rates detailed. The evaluation is carried out 205 days after the treatment by scoring the infestation on the fruits.

The test system of test [3] is pineapple mealybug Dysmicoccus brevipes. Put plainly: Pseudostem (and foliar) spray application on banana trees against pineapple mealybug. The note with it: banana cv. Cavendish, 50 ml on leaves and 50 ml on peeled stem, mealybug on the stem, Banole oil 30 g/l, chlorpyrifos-methyl 0.8 g/l, (II) SC 240 0.3 g/l in tank mix with 0.025% Hoestick. As for the experimental part:
Banana trees (growth stage BBCH 1130) cv. “Cavendish” consisting of mother plant and sucker are treated in three replications following foliar treatment against Aspidiotus destructor and against the pineapple mealybug Dysmicoccus brevipes by pseudostem application. To this end, in each case 100 ml of spray solution are applied, in each case 50 ml being sprayed onto the leaves and 50 ml onto the stem. Before the stem application, the outermost stem layer is first peeled off, which is general practice. Here, the active substance (II) (SC 240) is tested in a tank mix along with 0.025% Hoestick (XL 500) versus the commercial standards chlorpyrifos-methyl (500 EC) and liquid paraffin (Banole oil) (EC 600).
The evaluation is carried out 3, 7, 14 and 22 days after the treatment by scoring the destruction of the pineapple mealybug on the stem.

Read-outs that look alike come from different tables or passages of the source.

Turning to `O=[N+]([O-])NC1=NCCN1Cc1ccc(Cl)nc1` [Imidacloprid, imidacloprid, reference compound], in test [1], the “Activity in % Abbott 3 d” value came out at 98.4 % Abbott and the “Activity in % Abbott 91 d” value came out at 100 % Abbott. Also, the “Efficacy (% Abbott)” value in test [2] is on record as 100 % Abbott.
With `CCOC(=O)OC1=C(c2cc(C)ccc2C)C(=O)N[C@]12CC[C@@H](OC)CC2` [Example (II)], the “Activity in % Abbott 3 d” value in test [1] was found to be 66.7 % Abbott. The “Activity in % Abbott 91 d” value in test [1] is listed as 100 % Abbott. For the same compound, the inhibition at 300 µg/mL in test [3] (SC240, 72 h, 3 days after treatment, read-out: Activity (%) Abbott 3 d) came to 81.2%; in test [3] (SC240, 168 h, 7 days after treatment, read-out: Activity (%) Abbott 7 d), 92.3%; in test [3] (SC240, 336 h, 14 days after treatment, read-out: Activity (%) Abbott 14 d), 96.4%; in test [3] (SC240, 528 h, 22 days after treatment, read-out: Activity (%) Abbott 22 d), 96.7%. The “Efficacy (% Abbott)” value in test [2] stood at 100 % Abbott.
